{"source": "patent US20250020635A1", "about": "“ASSAY METHODS AND USES THEREOF FOR SCREENING ALZHEIMER'S DISEASE TREATMENT COMPOUNDS” (priority 2023, published 2025)", "key": {"[1]": {"tested_on": "HMC3 cells", "assay": "Microglial phagocytosis/cell health high-content assay, HMC3 cells", "type": "cell-based", "conditions": "60 μM, 48 hrs, compared to control", "description": "The assay introduced here is a simplified cellular imaging assay without any fixation and washing steps, while producing multiparameter measurements with high capacity using a 384-well plate format. The assay procedures include plating cells on day 1, incubating cell plates overnight before treating cells on day 2, adding pHrodo™-myelin/membrane debris to cell plates on day 3, and 20 hr later, staining cell nuclei with Hoechst-33342 for 30 min before performing high-content imaging on day 4. Three selected parameters are measured from cells: 1) mean total fluorescence intensity per cell of pHrodo™-myelin/membrane debris in phagocytosis vesicles to quantify phagocytosis; 2) cell counts per well to quantify treatment effects on proliferation and cell death; and 3) average nuclear intensity to quantify treatment-induced nuclear changes such as in apoptosis. The assay has been used on HMC3 cells (an immortalized human microglial cell line), BV2 cells (an immortalized mouse microglial cell line), and primary microglia isolated from mouse brains. For initial assay attempts, we recommend using HMC3 cells available from the ATCC.\nAll collected raw data are normalized to the untreated control with following formula: % of control=100×(X−Min)/(Max−Min). Factors in the formula are: X is raw data from a treated well, Max is an average measurement from pHrodo™-myelin seeded but untreated wells, and Min is an average measurement from no pHrodo™-myelin untreated wells. Normalized data are used for curve fitting that is done with the variable slope (four parameters) using the Prism software.\nTo ensure that the measurements reflect the steady state of compound treatment effects and cell health, the assay was set with a total compound treatment time of 48 hr, including pHrodo™-myelin/membrane debris seeding performed 20-24 hr after compound addition. […] Among many available quantitative measurements from the image analysis, we selected three parameters for the assay:\n1) The mean total intensity of phagocytosis vesicles/cell—to measure phagocytosis. There are multiple parameters generated from the image analysis, including phagocytosis vesicle area, number, and various fluorescence intensity measurements. Comparing these parameters, the total fluorescence intensity of vesicles/cell is the most sensitive one and was chosen for quantifying phagocytosis.\n2) The total cell counts—to measure overall cell viability, which is affected by proliferation and cell death. We chose to take 4 images/well (with the 10× objective lens) that cover about 50% of the total area of a well in a 384-well plate to represent cell count of the well.\n3) The average nuclear intensity—to measure drug-induced apoptosis, with high signal indicating nuclear condescension (a sign of early apoptosis) and low signal indicating DNA degradation (a sign of later apoptosis, when activated caspases digest DNA).\nA phenotypic high-content imaging assay with simultaneous measurements of phagocytosis, cell number, and nuclear intensity was used to assess both cellular pharmacology and cell health. Model cell lines BV2 (immortalized mouse microglia, a gift from Dr. Michelle Block's laboratory at IUSM) and HMC3 (immortalized human microglia, obtained from ATCC, CRL-3304) were used to provide adequate throughput. Cells were cultured in DMEM GlutaMax media (ThermoFisher) containing 10% FBS and Pen-Strep in a 37° C. 5% CO2 incubator, plated in Corning Falcon 384 well Optilux Black and clear bottom plates: 400 cells/45 μl/well (BV2 cells), 600 cells/45 μl/well (HMC3 cells) and 2000 cell/45 μl/well (primary cells), and treated with 10× serially diluted compounds (60 μM-3 nM) for 48 hrs at 37° C. […]"}, "[2]": {"target": "T1, PLCγ2 enzyme (Homo sapiens, UniProt P16885)", "T1 sequence (P16885 1-1265)": "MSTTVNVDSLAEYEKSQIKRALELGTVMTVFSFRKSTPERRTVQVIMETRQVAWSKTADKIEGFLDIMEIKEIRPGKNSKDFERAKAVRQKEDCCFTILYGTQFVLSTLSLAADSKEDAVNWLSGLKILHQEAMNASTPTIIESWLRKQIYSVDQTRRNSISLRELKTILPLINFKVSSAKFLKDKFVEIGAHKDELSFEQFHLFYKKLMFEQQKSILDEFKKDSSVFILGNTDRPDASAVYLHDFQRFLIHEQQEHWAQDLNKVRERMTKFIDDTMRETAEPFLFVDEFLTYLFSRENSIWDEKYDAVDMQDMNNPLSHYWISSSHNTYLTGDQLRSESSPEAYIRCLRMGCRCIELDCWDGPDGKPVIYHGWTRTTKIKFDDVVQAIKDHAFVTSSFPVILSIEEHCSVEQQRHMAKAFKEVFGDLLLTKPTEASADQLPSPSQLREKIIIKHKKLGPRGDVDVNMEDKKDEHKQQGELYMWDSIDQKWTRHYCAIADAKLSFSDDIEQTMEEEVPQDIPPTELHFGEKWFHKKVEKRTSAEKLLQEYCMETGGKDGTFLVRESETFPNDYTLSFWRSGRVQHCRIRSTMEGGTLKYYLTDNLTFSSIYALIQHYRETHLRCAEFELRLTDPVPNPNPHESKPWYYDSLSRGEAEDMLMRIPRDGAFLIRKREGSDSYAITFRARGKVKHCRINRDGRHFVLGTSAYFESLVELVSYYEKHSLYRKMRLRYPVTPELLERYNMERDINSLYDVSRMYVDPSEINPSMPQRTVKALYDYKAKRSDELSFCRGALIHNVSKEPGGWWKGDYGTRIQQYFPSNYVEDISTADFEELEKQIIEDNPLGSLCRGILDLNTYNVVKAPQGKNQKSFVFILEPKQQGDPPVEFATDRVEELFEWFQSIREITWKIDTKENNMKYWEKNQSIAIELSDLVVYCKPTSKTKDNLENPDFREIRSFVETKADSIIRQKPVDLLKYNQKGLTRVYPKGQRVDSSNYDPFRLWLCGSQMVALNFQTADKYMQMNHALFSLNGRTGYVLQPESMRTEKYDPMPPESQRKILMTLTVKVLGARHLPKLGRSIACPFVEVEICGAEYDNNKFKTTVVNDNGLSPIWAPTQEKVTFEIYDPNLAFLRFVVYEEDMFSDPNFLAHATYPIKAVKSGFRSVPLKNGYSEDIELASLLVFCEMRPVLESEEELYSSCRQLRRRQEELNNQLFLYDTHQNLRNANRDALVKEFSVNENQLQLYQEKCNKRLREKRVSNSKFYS", "assay": "Liposomal biochemical assay with fluorogenic probe XY-69", "conditions": "for increase in PLCγ2 activity (change in slope relative to control): dose response, liposomes with XY-69", "description": "Sondek and coworkers have described an assay for PLCγ1 activity in the presence of liposomes as a model for activity at the cell membrane where the natural ligand is located.^36 The assay was redeveloped and reoptimized for PLCγ2 at the Purdue Institute for Drug Discovery. Liposomes containing XY-69 (purchased from Avanti Polar Lipids, cat. #850168) were generated using phosphatidylinositol 4,5-bisphosphate (PIP2) and 1-stearoyl-2-arachidonoyl-sn-glycero-3-phosphatidylethanolamine (lipidPE). The PLCγ2 enzyme was exposed to this solution and, after treatment with the compounds of interest, the fluorescence intensity (ex: 485 nm; em: 520 nm) was recorded every 2 min for 120 min (FIG. 19). The slope of the linear portion of the curves (up to 50 min) was compared to control giving a relative rate of reaction. Dose dependent curves of a representative sample of the compounds tested are shown (FIG. 20A-20B)."}}}
{"smiles": "Cc1cc(C)c(S(=O)(=O)NC2CCCNC2)c(C)c1", "note": "(stereo not drawn) [Compound 11]", "values": [{"measurement": "Ave. % Cell Count @ 60 uM HMC3 cells", "setting": "[1]", "result": 65, "unit": "%"}, {"measurement": "Ave. % Phagocytosis @ 60 uM HMC3 cells", "setting": "[1]", "result": 146, "unit": "%"}, {"measurement": "enzymatic activation, single dose", "setting": "[2]; 100 μM", "result": "no enzymatic activation"}]}
{"smiles": "Cc1cc(C)c(S(=O)(=O)Nc2cccc(C(F)(F)F)c2)c(C)c1", "note": "[Compound 1, 2,4,6-trimethyl-N-(meta-3-trifluoromethyl-phenyl)-benzenesulfonamide, reference compound]", "values": [{"measurement": "Ave. % Cell Count @ 60 uM HMC3 cells", "setting": "[1]", "result": 3, "unit": "%"}, {"measurement": "Ave. % Phagocytosis @ 60 uM HMC3 cells", "setting": "[1]", "result": 0, "unit": "%"}, {"measurement": "increase in PLCγ2 activity (change in slope relative to control)", "setting": "[2]", "result": "among the highest increases of all analogs tested"}, {"measurement": "increase in PLCγ2 activity (change in slope relative to control)", "setting": "[2]; listed as m-3M3FBS", "result": "highest increase in response"}]}
{"smiles": "O=S(=O)(Nc1ccc(Br)cc1F)c1cccs1", "note": "[Compound 8]", "values": [{"measurement": "Ave. % Cell Count @ 60 uM HMC3 cells", "setting": "[1]", "result": 88, "unit": "%"}, {"measurement": "Ave. % Phagocytosis @ 60 uM HMC3 cells", "setting": "[1]", "result": 104, "unit": "%"}]}
{"smiles": "Cc1cc(C)c(S(=O)(=O)Nc2ccccc2C(F)(F)F)c(C)c1", "note": "[Compound 2, o-3M3FBS, reference compound]", "values": [{"measurement": "Ave. % Cell Count @ 60 uM HMC3 cells", "setting": "[1]", "result": 103, "unit": "%"}, {"measurement": "Ave. % Phagocytosis @ 60 uM HMC3 cells", "setting": "[1]", "result": 99, "unit": "%"}, {"measurement": "increase in PLCγ2 activity (change in slope relative to control)", "setting": "[2]", "result": "much lower, though it still showed a statistically significant increase in activation"}]}
